We go through 4 substances from US8466104B2, “Therapeutically active alpha MSH analogues” (AbbVie Inc., priority 2005, dated 2013).

Experiment [1] deals with LPS induced TNF-α production by human leucocytes (PBMC). Description: Inhibition of LPS induced TNF-a production by human leucocytes in vitro (experimental setup 1). The experiment is classed as cell-based. To be noted: for dose dependent reduction of LPS induced TNF-a accumulation / inhibitory effect on TNF-a accumulation compared to native a-MSH / LPS induced TNF-a accumulation, % of the maximal response (LPS-Vehicle): human leucocyte suspension; for LPS induced TNF-a accumulation, % of the maximal response (LPS-Vehicle): 10 ng LPS/mL, 18 hours, maximal effect (10^−7 M); for concentration at which the maximal inhibitory effect on LPS-induced TNF-α production was achieved: human lymphocyte suspension. How it is done:
Inhibition of LPS Induced TNF-a Production by Human Leucocytes In Vitro
20 mL human blood is collected in vacutainer tubes containing EDTA. PBMC is isolated using Ficoll-Paque Plus as in Amersham's Instruction 71-7167-00 AD, 2002-06. PBMC is counted using Tryphan Blue Solution (Sigma) and incubated in RPMI 1640, (Applichem), supplemented with 10 mM Hepes (Sigma), 2 mM L-glutamin (Sigma), 0.1% BSA (Sigma) and 50U/50 μg/mL Penicillin/Streptomycin (Sigma) in the concentration 5×10^5 cells/mL. The isolated PBMC is incubated in a humidified 5% CO2, 95% air atmosphere, at 37° C., in 24 well flat-bottomed plates (Corning Incorporated) with medium, 10 ng LPS/mL (Sigma), and test compound. After 18 hours the samples are centrifuged, and TNF-α in the supernatants is measured using Tumour Necrosis Factor Alpha [(h)TNF-α] from Human Biotrak ELISA System (Amersham).
The samples are incubated as following per donor: • PBMC's in RPMI (Time Control) • PBMC's with 10 ng LPS/mL (Vehicle) • PBMC's, 10 ng LPS/mL, 10^−17M a-MSH or a-MSH analogue • PBMC's, 10 ng LPS/mL, 10^−15M a-MSH or a-MSH analogue • PBMC's, 10 ng LPS/mL, 10^−13M a-MSH or a-MSH analogue • PBMC's, 10 ng LPS/mL, 10^−11M a-MSH or a-MSH analogue • PBMC's, 10 ng LPS/mL, 10^−9M a-MSH or a-MSH analogue • PBMC's, 10 ng LPS/mL, 10^−7M a-MSH or a-MSH analogue
All samples are diluted from an initial stock solution between 1.4×10^−4M and 1.8×10^−3M. All solutions are handled in BSA coated vials in order to protect against binding of the compound to the surface of the vials.
Data is presented as mean±SE. The effect of test compounds on LPS induced TNF-a liberation is expressed as percentage of the TNF-a accumulation in the LPS-vehicle group. All comparisons are analysed with Student's unpaired t-test. Differences are considered significant at probability levels (p) of 0.05.

For experiment [2], the system named is neutrophil and eosinophil infiltration in BALF after LPS inhalation. Description: Inhibition of neutrophil and eosinophil infiltration after LPS inhalation in rats (experimental setup 3). The format is in vivo, rat. The following applies: for number of eosinophils within the BALF / number of neutrophils within the BALF: 24 hours after LPS inhalation, 200 μg/kg bw iv bid; for effect on neutrophils within the BALF compared to a-MSH / reduction of eosinophils in the BALF / lungs: LPS inhalation. How it is done:
Inhibition of Neutrophil and Eosinophil Infiltration after LPS Inhalation in Rats.
Male Sprague-Dawley rats (weight ˜200 g) from M&B A/S, DK-8680 Ry, Denmark, are used for all experiments. The rats are caged in standard cages type 3 and housed in a temperature- (22-24° C.) and moisture-controlled (40-70%) room with a 12 h light-dark cycle (light on from 6:00 A.M. to 6:00 P.M.). The diet is autoclaved Altromin 1324 special formulation, Produced by Altromin Denmark, Chr. Pedersen A/S, 4100 Ringsted, Denmark. Diet and water are administered ad libitum.
After acclimatization the rats are randomly allocated to the experimental groups and dosed i.v. with test compound at start of LPS-induction and once again 8 hours after LPS-induction.
Rats in groups of 3 are anaesthetized with 0.1 ml hypnorm/dormicum pr. 100 g and dosed i.v with the test compound. Immediately after dosing they are placed in the inhalation chamber where they are subjected to a nebulized LPS solution. The concentration of LPS is 1 mg/ml. Dosing time is 15 minutes. The rats are euthanized 24 hours after dosing with the test substance. At termination the rats are euthanized with CO2/O2. Then bronchoalveolar lavage is performed by installing and withdrawing 6×2.5 ml of PBS to the right lung. Lavage is done with the lungs remaining in the thorax after removing sternum and costae. The connection to the left lung is tied off during this procedure. Bronchoalveolar fluid (BALF) is centrifuged at 1000 rpm at 4° C. for 10 minutes. After removing the supernatant the cell pellet is resuspended in 0.5 ml PBS and total cell count performed. Two smears of BALF stained with May-Grüjwald Giemsa stain is made from each rat. BALF from each rat is subjected to total cell count and to differential count of leucocytes.
In addition to LPS infusion all rats are treated with bolus injections of either:
• a-MSH: 200 μg/kg/bw • a-MSH analogue: 200 μg/kg/bw
Data are presented as mean±S.E. Between group comparisons are performed by one way analysis of variance followed by Fishers Least Significant Difference test. Differences are considered significant at the 0.05 level.

For the substance “Ac-Lys-Lys-Lys-Lys-Lys-Lys-Ser-Tyr-Ser-Met-Glu-His-Phe-Arg-Trp-Gly-Lys-Pro-Val-NH2 (Ac-KKKKKKSYSMEHFRWGKPV-NH2) [a-MSH analogue #1]”, in experiment [1], the “dose dependent reduction of LPS induced TNF-a accumulation” value (from here on “dose dependent reduction”) is “dose dependently reduce”; the “inhibitory effect on TNF-a accumulation compared to native a-MSH” value (from here on “inhibitory effect … compared to native a-MSH”) is on record as “markedly more pronounced”; the “LPS induced TNF-a accumulation, % of the maximal response (LPS-Vehicle)” value (“LPS induced TNF-a accumulation, %” for short) came to 47±2%; the “concentration at which the maximal inhibitory effect on LPS-induced TNF-α production was achieved” value is 10^−7 M. In experiment [2], the “number of eosinophils within the BALF” value is 49.0±10.5 ×10^5cells, the “effect on neutrophils within the BALF compared to a-MSH” value (shortened to “effect … compared to a-MSH”) is on record as “similar” and the “reduction of eosinophils in the BALF / lungs” value is “marked reduction of eosinophils”. Besides, the “reduction of eosinophils in the BALF / lungs” value in experiment [2] (listed as SEQ ID NO:1*) is “significantly inhibits”.

In the case of “Ac-Lys-Lys-Lys-Lys-Lys-Lys-Ser-Tyr-Ser-Nle-Glu-His-(D-Phe)-Arg-Trp-Gly-Lys-Pro-Val-NH2 (KKKKKKSYSXEHFRWGKPV; N-acetyl, Nle, D-Phe, C-amide) [a-MSH analogue #2]”, in experiment [1], the “dose dependent reduction” value was “dose dependently reduce”; the “inhibitory effect … compared to native a-MSH” value was “markedly more pronounced”; the “LPS induced TNF-a accumulation, %” value is given as 42±111%; the “concentration at which the maximal inhibitory effect on LPS-induced TNF-α production was achieved” value is 10^−7 M. Besides, in experiment [2], the “number of eosinophils within the BALF” value is on record as 34.0±8.6 ×10^5cells, the “number of neutrophils within the BALF” value was 9.1±2.4 ×10^5cells, the “effect … compared to a-MSH” value is “much more pronounced inhibitory effects” and the “reduction of eosinophils in the BALF / lungs” value is given as “marked reduction of eosinophils”. Further, in experiment [2] (listed as SEQ ID NO: 5*), the “effect … compared to a-MSH” value is listed as “markedly inhibited neutrophil infiltration to a much higher degree” and the “reduction of eosinophils in the BALF / lungs” value is reported as “significantly inhibits”.

In the case of “Ac-Lys-Lys-Lys-Lys-Lys-Lys-Ser-Tyr-Ser-Nle-Glu-His-D-Nal-Arg-Trp-Gly-Lys-Pro-Val-NH2 (KKKKKKSYSXEHXRWGKPV; not fully specified; N-acetyl, Nle, D-Nal, C-amide) [a-MSH analogue #3]”, in experiment [1], the “dose dependent reduction” value is given as “dose dependently reduce”; the “inhibitory effect … compared to native a-MSH” value is on record as “markedly more pronounced”; the “LPS induced TNF-a accumulation, %” value was 53±13%.

“Ser-Tyr-Ser-Met-Glu-His-Phe-Arg-Trp-Gly-Lys-Pro-Val [a-MSH, reference compound]”: in experiment [1], the “dose dependent reduction” value was “dose dependently reduce” and the “LPS induced TNF-a accumulation, %” value stood at 73±9%. Moreover, the “concentration at which the maximal inhibitory effect on LPS-induced TNF-α production was achieved” value in experiment [1] (listed as α-MSH) is 10^−7 M. For the same substance, in experiment [2], the “number of eosinophils within the BALF” value is given as 26.7±4.3 ×10^5cells, the “number of neutrophils within the BALF” value is 20.1±2.5 ×10^5cells and the “reduction of eosinophils in the BALF / lungs” value was “marked reduction of eosinophils”.
